The source made the active and inactive calls. The rule behind the calls is not given here.
Columns and labels:
M14 = assay: Growth inhibition of human M14 cells assessed as cell viability at 10 uM incubated for 48 hrs by sulforhodamine B assay; format: functional; conditions: M14, 48 h, read-out: Activity
[1] = Growth inhibition of human MOLT4 cells assessed as cell viability at 10 uM incubated for 48 hrs by sulforhodamine B assay; format: functional; conditions: MOLT-4, 48 h, read-out: Activity
A498 = assay: Growth inhibition of human A498 cells assessed as cell viability at 10 uM incubated for 48 hrs by sulforhodamine B assay; format: functional; conditions: A498, 48 h, read-out: Activity
[2] = Growth inhibition of human HOP92 cells assessed as cell viability at 10 uM incubated for 48 hrs by sulforhodamine B assay; format: functional; conditions: HOP-92, 48 h, read-out: Activity
SNB-75 = assay: Growth inhibition of human SNB75 cells assessed as cell viability at 10 uM incubated for 48 hrs by sulforhodamine B assay; format: functional; conditions: SNB-75, 48 h, read-out: Activity
NCI-H460 = assay: Growth inhibition of human NCI-H460 cells assessed as cell viability at 10 uM incubated for 48 hrs by sulforhodamine B assay; format: functional; conditions: NCI-H460, 48 h, read-out: Activity
[3] = Growth inhibition of human RXF393 cells assessed as cell viability at 10 uM incubated for 48 hrs by sulforhodamine B assay; format: functional; conditions: RXF 393, 48 h, read-out: Activity
[4] = Growth inhibition of human NCI60 cells assessed as cell viability at 10 uM incubated for 48 hrs by sulforhodamine B assay; format: functional; conditions: NCI60, 48 h, read-out: Activity
[5] = Growth inhibition of human Hs 578T cells assessed as cell viability at 10 uM incubated for 48 hrs by sulforhodamine B assay; format: functional; conditions: read-out: Activity
SW-620 = assay: Growth inhibition of human SW620 cells assessed as cell viability at 10 uM incubated for 48 hrs by sulforhodamine B assay; format: functional; conditions: SW-620, 48 h, read-out: Activity
SN12C = assay: Growth inhibition of human SN12C cells assessed as cell viability at 10 uM incubated for 48 hrs by sulforhodamine B assay; format: functional; conditions: read-out: Activity
OVCAR-8 = assay: Growth inhibition of human OVCAR8 cells assessed as cell viability at 10 uM incubated for 48 hrs by sulforhodamine B assay; format: functional; conditions: OVCAR-8, 48 h, read-out: Activity
SR = assay: Growth inhibition of human SR cells assessed as cell viability at 10 uM incubated for 48 hrs by sulforhodamine B assay; format: functional; conditions: read-out: Activity
OVCAR-4 = assay: Growth inhibition of human OVCAR4 cells assessed as cell viability at 10 uM incubated for 48 hrs by sulforhodamine B assay; format: functional; conditions: OVCAR-4, 48 h, read-out: Activity
[6] = Growth inhibition of human SF295 cells assessed as cell viability at 10 uM incubated for 48 hrs by sulforhodamine B assay; format: functional; conditions: SF-295, 48 h, read-out: Activity
[7] = Growth inhibition of human COLO205 cells assessed as cell viability at 10 uM incubated for 48 hrs by sulforhodamine B assay; format: functional; conditions: COLO 205, 48 h, read-out: Activity
KM12 = assay: Growth inhibition of human KM12 cells assessed as cell viability at 10 uM incubated for 48 hrs by sulforhodamine B assay; format: functional; conditions: KM12, 48 h, read-out: Activity
[8] = Growth inhibition of human SF539 cells assessed as cell viability at 10 uM incubated for 48 hrs by sulforhodamine B assay; format: functional; conditions: SF-539, 48 h, read-out: Activity
HL-60(TB) = assay: Growth inhibition of human HL-60(TB) cells assessed as cell viability at 10 uM incubated for 48 hrs by sulforhodamine B assay; format: functional; conditions: HL-60, 48 h, read-out: Activity
[9] = Growth inhibition of human LOXIMVI cells assessed as cell viability at 10 uM incubated for 48 hrs by sulforhodamine B assay; format: functional; conditions: LOX IMVI, read-out: Activity
[10] = Growth inhibition of human RPMI8226 cells assessed as cell viability at 10 uM incubated for 48 hrs by sulforhodamine B assay; format: functional; conditions: RPMI-8226, 48 h, read-out: Activity
K562 = assay: Growth inhibition of human K562 cells assessed as cell viability at 10 uM incubated for 48 hrs by sulforhodamine B assay; format: functional; conditions: K562, 48 h, read-out: Activity
HOP-62 = assay: Growth inhibition of human HOP62 cells assessed as cell viability at 10 uM incubated for 48 hrs by sulforhodamine B assay; format: functional; conditions: HOP-62, 48 h, read-out: Activity
UACC-62 = assay: Growth inhibition of human UACC62 cells assessed as cell viability at 10 uM incubated for 48 hrs by sulforhodamine B assay; format: functional; conditions: UACC-62, 48 h, read-out: Activity
HCT-15 = assay: Growth inhibition of human HCT15 cells assessed as cell viability at 10 uM incubated for 48 hrs by sulforhodamine B assay; format: functional; conditions: HCT-15, 48 h, read-out: Activity
NCI-H322M = assay: Growth inhibition of human NCI-H322M cells assessed as cell viability at 10 uM incubated for 48 hrs by sulforhodamine B assay; format: functional; conditions: read-out: Activity
Rattus norvegicus = assay: Antidiabetic activity in Wistar rat assessed as reduction in blood glucose level at 30 mg/kg, po dosed 30 mins before glucose challenge and measured 30 and 60 mins post glucose challenge by OGTT method; format: functional, organism-based
Malme-3M = assay: Growth inhibition of human MALME-3M cells assessed as cell viability at 10 uM incubated for 48 hrs by sulforhodamine B assay; format: functional; conditions: read-out: Activity
U-251 = assay: Growth inhibition of human U251 cells assessed as cell viability at 10 uM incubated for 48 hrs by sulforhodamine B assay; format: functional; conditions: U-251, 48 h, read-out: Activity
CAKI-1 = assay: Growth inhibition of human CAKI-1 cells assessed as cell viability at 10 uM incubated for 48 hrs by sulforhodamine B assay; format: functional; conditions: CAKI-1, 48 h, read-out: Activity
OVCAR-5 = assay: Growth inhibition of human OVCAR5 cells assessed as cell viability at 10 uM incubated for 48 hrs by sulforhodamine B assay; format: functional; conditions: OVCAR-5, 48 h, read-out: Activity
MDA-MB-468 = assay: Growth inhibition of human MDA-MB-468 cells assessed as cell viability at 10 uM incubated for 48 hrs by sulforhodamine B assay; format: functional; conditions: MDA-MB-468, 48 h, read-out: Activity
T47D = assay: Growth inhibition of human T47D cells assessed as cell viability at 10 uM incubated for 48 hrs by sulforhodamine B assay; format: functional; conditions: read-out: Activity
ACHN = assay: Growth inhibition of human ACHN cells assessed as cell viability at 10 uM incubated for 48 hrs by sulforhodamine B assay; format: functional; conditions: read-out: Activity
NCI-H226 = assay: Growth inhibition of human NCI-H226 cells assessed as cell viability at 10 uM incubated for 48 hrs by sulforhodamine B assay; format: functional; conditions: NCI-H226, 48 h, read-out: Activity
SK-MEL-28 = assay: Growth inhibition of human SK-MEL-28 cells assessed as cell viability at 10 uM incubated for 48 hrs by sulforhodamine B assay; format: functional; conditions: SK-MEL-28, 48 h, read-out: Activity

| SMILES | viability at 10 µM (M14) [%] | viability at 10 µM [1] [%] | viability at 10 µM (A498) [%] | viability at 10 µM [2] [%] | viability at 10 µM (SNB-75) [%] | viability at 10 µM (NCI-H460) [%] | viability at 10 µM [3] [%] | viability at 10 µM [4] [%] | viability at 10 µM [5] [%] | viability at 10 µM (SW-620) [%] | viability at 10 µM (SN12C) [%] | viability at 10 µM (OVCAR-8) [%] | viability at 10 µM (SR) [%] | viability at 10 µM (OVCAR-4) [%] | viability at 10 µM [6] [%] | viability at 10 µM [7] [%] | viability at 10 µM (KM12) [%] | viability at 10 µM [8] [%] | viability at 10 µM (HL-60(TB)) [%] | viability at 10 µM [9] [%] | further results |
| --- | --- | --- | --- | --- | --- | --- | --- | --- | --- | --- | --- | --- | --- | --- | --- | --- | --- | --- | --- | --- | --- |
| COc1ccc(C2CC(c3ccco3)=NN2c2ccc(S(=O)(=O)NC(=O)NCc3ccccc3)cc2)cc1 (stereo unspecified) | 102 | 110 | 96.2 | 80.6 | 97.8 | 106 | 113 | 101 | 105 | 104 | 106 | 97.9 | 107 | 97.1 | 95.9 | 123 | 105 | 90 | 126 | 102 | viability at 10 µM [10]: 102%; viability at 10 µM (K562): 98%; viability at 10 µM (HOP-62): 103%; viability at 10 µM (UACC-62): 105%; viability at 10 µM (HCT-15): 101%; viability at 10 µM (NCI-H322M): 97.5%; Activity (Rattus norvegicus): Active; viability at 10 µM (Malme-3M): 107%; viability at 10 µM (U-251): 99.3%; viability at 10 µM (CAKI-1): 97.7%; viability at 10 µM (OVCAR-5): 102%; viability at 10 µM (MDA-MB-468): 101%; viability at 10 µM (T47D): 84.6%; viability at 10 µM (ACHN): 101%; viability at 10 µM (NCI-H226): 97.1%; viability at 10 µM (SK-MEL-28): 101% |
| O=C(NCc1ccccc1)NS(=O)(=O)c1ccc(N2N=C(c3cc4ccccc4oc3=O)CC2c2cccs2)cc1 (stereo unspecified) | 98.8 | 106 | 107 | 94.2 | 82.3 | 107 | 123 | 103 | 99.6 | 108 | 98.4 | 103 | 98.8 | 98.2 | 93.8 | 119 | 105 | 103 | 119 | 97.7 | viability at 10 µM [10]: 105%; viability at 10 µM (K562): 111%; viability at 10 µM (HOP-62): 93.6%; viability at 10 µM (UACC-62): 102%; viability at 10 µM (HCT-15): 106%; viability at 10 µM (NCI-H322M): 106%; viability at 10 µM (Malme-3M): 90.7%; viability at 10 µM (U-251): 102%; viability at 10 µM (CAKI-1): 94.2%; viability at 10 µM (OVCAR-5): 111%; viability at 10 µM (MDA-MB-468): 110%; viability at 10 µM (T47D): 97.4%; viability at 10 µM (ACHN): 102%; viability at 10 µM (NCI-H226): 98.4%; viability at 10 µM (SK-MEL-28): 97.4% |

From ChEMBL document CHEMBL3621178, “Antidiabetic effect of novel benzenesulfonylureas as PPAR-γ agonists and their anticancer effect” (Bioorg Med Chem Lett, 2015)
